These are literature values, as cited in patent US11759418B1, “Composition for treating wounds, dermatitis, inflammation, and irritation” (Chrism Products, Inc., priority 2016, dated 2023).

Where two headings read alike, the source gives them in different places. Bounds are passed on as bounds.

The test system of one data set is wound healing process. As to conditions: results from histological analyses.
The conditions of data set [1]: chemically synthesized bulk allantoin.

As to `NC(=O)NC1NC(=O)NC1=O` (stereo not shown) [Allantoin, 5-ureidohydantoin], the “effect on wound healing process” value with wound healing process is listed as “benefits the wound healing process”. In addition, the Concentration entry was “ca 0.8%” (5% Glycerin in water, 20° C.); “ca. 0.3%” (50% Isopropanol in water, 25° C.); “ca. 0.1%” (Ethanol, 20° C.); “ca. 0.3%” (Propylene glycol, 25° C.); “ca. 0.4%” (Water, 20° C.); “ca. 4.0%” (Water, 75° C.). For the same molecule, in data set [1], the safety / toxicity entry is listed as “safe, non-toxic”.

As for “benzyl-dimethyl-tridecylazanium [Benzalkonium Chloride]”, the “concentration producing mild skin irritation” value in the data set with skin (clinical studies, dermal use) is reported as ≥ 5%. Also, the “concentration safe for dermal use” value in the data set on skin (in vivo) was “up to 0.5%”.
